# Data from ChEMBL document CHEMBL2016457, “Discovery of potent and orally bioavailable 17β-hydroxysteroid dehydrogenase type 3 inhibitors” (Bioorg Med Chem, 2012).
# The source made the active and inactive calls. The rule behind the calls is not given here.
# Key:
# [1] = target: T1, 17-beta-hydroxysteroid dehydrogenase type 1 (Homo sapiens) (UniProt P14061); test: Inhibition of human recombinant 17-beta-HSD1 expressed in human HeLa cells using estrone as substrate preincubated for 30 mins prior substrate addition measured after 120 mins by spectrophotometry; format: cell-based
# T1 sequence (whole entry): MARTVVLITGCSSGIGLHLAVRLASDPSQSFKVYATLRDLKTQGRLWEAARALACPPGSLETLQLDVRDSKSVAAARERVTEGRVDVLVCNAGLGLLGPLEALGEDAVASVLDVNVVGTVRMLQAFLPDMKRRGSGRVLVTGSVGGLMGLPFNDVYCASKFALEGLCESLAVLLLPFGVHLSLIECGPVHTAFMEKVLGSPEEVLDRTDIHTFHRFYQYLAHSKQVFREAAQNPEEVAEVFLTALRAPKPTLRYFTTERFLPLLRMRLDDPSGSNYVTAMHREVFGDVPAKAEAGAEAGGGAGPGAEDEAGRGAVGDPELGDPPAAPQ
# [2] = target: T2, 17-beta-hydroxysteroid dehydrogenase type 3 (Homo sapiens, UniProt P37058)
# T2 sequence (P37058 whole entry): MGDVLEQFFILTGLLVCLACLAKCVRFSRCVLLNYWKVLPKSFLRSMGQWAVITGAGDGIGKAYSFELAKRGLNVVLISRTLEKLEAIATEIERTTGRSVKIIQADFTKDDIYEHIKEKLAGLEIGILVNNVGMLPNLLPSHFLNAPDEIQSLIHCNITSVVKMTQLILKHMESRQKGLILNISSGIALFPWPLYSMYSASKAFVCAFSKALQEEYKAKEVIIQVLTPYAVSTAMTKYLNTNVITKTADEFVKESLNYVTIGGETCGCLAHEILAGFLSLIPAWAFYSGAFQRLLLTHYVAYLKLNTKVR
# Description: Inhibition of human recombinant 17-beta-HSD3 expressed in human HeLa cells using androstenedione as substrate preincubated for 30 mins prior substrate addition measured after 120 mins by spectrophotometry
# [3] = target: T3, Androgen receptor (Homo sapiens) (UniProt P10275); test: Agonist activity at human androgen receptor expressed in human HeLa cells assessed as DHT-induced response after 40 hrs by luciferase/beta-galactosidase-based reporter gene assay; format: functional, cell-based
# T3 sequence (whole entry): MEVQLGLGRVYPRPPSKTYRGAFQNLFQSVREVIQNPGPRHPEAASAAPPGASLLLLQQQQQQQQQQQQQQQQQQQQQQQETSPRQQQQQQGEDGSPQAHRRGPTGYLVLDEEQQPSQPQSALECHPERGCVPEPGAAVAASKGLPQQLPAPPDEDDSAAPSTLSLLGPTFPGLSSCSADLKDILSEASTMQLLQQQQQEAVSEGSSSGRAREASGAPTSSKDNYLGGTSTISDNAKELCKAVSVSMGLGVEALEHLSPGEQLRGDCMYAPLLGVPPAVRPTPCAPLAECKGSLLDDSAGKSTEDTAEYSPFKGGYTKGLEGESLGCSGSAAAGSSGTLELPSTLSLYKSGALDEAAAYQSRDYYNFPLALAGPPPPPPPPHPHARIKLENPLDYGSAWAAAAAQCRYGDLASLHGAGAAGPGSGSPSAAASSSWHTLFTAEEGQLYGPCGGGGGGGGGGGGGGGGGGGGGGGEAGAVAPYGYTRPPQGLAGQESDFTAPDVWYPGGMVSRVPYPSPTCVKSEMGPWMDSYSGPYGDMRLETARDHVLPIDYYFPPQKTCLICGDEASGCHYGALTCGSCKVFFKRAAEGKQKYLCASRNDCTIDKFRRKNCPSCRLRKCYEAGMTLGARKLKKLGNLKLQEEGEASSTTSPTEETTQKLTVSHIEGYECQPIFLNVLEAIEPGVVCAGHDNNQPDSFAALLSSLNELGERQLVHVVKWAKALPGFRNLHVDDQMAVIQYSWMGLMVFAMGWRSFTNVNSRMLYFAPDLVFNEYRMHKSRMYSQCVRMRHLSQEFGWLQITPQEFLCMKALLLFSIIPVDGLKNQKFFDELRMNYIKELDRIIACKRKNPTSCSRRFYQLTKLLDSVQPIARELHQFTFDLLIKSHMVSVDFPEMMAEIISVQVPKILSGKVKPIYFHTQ
# [4] = target: T4, 17-beta-hydroxysteroid dehydrogenase type 2 (Homo sapiens) (UniProt P37059); test: Inhibition of human recombinant 17-beta-HSD2 expressed in human HeLa cells using estradiol as substrate preincubated for 30 mins prior substrate addition measured after 120 mins by spectrophotometry; format: cell-based
# T4 sequence (whole entry): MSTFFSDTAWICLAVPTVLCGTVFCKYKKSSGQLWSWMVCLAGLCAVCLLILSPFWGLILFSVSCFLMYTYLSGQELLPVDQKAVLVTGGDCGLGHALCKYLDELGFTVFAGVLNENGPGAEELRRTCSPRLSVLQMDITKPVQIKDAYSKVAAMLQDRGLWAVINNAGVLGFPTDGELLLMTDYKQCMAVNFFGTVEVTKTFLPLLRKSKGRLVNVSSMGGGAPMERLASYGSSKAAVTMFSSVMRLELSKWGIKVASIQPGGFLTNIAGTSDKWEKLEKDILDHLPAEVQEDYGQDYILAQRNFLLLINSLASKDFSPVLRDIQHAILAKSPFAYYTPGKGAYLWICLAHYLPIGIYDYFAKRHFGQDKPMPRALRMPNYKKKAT
# [5] = target: T5, Glucocorticoid receptor (Homo sapiens) (UniProt P04150); test: Antagonist activity at human GR receptor expressed in human HeLa cells assessed as inhibition of DHT-induced response after 40 hrs by luciferase/beta-galactosidase-based reporter gene assay; format: functional, cell-based
# T5 sequence (whole entry): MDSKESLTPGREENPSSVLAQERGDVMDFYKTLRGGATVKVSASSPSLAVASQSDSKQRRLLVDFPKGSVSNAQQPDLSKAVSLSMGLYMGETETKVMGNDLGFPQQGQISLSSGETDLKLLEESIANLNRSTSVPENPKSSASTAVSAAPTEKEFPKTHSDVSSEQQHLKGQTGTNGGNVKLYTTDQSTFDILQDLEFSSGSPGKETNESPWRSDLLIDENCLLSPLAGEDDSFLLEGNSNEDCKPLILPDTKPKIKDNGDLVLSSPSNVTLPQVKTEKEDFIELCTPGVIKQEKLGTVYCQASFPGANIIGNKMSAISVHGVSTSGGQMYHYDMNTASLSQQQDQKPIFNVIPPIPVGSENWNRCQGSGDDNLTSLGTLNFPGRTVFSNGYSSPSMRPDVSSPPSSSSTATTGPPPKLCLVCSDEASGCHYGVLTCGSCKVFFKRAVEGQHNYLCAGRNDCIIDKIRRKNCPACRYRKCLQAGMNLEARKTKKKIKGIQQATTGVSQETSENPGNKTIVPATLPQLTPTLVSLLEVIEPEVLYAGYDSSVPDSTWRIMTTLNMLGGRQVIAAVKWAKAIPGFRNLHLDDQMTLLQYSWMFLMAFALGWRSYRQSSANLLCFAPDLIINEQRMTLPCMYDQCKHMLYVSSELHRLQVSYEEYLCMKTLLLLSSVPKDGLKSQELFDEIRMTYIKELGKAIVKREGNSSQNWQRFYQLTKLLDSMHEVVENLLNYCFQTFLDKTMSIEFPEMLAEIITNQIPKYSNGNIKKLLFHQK
# [6] = target: T3, Androgen receptor (Homo sapiens); test: Antagonist activity at human androgen receptor expressed in human HeLa cells assessed as inhibition of DHT-induced response after 40 hrs by luciferase/beta-galactosidase-based reporter gene assay; format: functional, cell-based
# [7] = target: T6, Estrogen receptor (Homo sapiens) (UniProt P03372); test: Agonist activity at human Estrogen receptor ERalpha expressed in human HeLa cells assessed as DHT-induced response after 40 hrs by luciferase/beta-galactosidase-based reporter gene assay; format: functional, cell-based
# T6 sequence (whole entry): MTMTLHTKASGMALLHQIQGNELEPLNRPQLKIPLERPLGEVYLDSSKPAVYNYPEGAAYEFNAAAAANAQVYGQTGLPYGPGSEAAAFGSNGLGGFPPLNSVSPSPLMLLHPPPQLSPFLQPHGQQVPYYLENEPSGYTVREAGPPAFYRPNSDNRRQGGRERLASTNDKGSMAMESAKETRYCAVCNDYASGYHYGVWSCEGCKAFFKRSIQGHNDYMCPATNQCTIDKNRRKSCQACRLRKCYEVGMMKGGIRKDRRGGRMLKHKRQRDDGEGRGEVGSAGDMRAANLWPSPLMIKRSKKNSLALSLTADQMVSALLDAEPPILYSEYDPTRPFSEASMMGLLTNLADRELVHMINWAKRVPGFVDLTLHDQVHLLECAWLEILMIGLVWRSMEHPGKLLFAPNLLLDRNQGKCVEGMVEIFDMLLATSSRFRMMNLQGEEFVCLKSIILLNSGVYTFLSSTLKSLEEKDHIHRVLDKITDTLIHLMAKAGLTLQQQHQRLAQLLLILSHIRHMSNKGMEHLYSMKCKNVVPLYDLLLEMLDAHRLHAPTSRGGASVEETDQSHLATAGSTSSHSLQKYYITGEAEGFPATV
# [8] = target: T6, Estrogen receptor (Homo sapiens); test: Antagonist activity at human ERalpha receptor expressed in human HeLa cells assessed as inhibition of DHT-induced response after 40 hrs by luciferase/beta-galactosidase-based reporter gene assay; format: functional, cell-based
# [9] = target: T5, Glucocorticoid receptor (Homo sapiens); test: Agonist activity at human Glucocorticoid receptor expressed in human HeLa cells assessed as DHT-induced response after 40 hrs by luciferase/beta-galactosidase-based reporter gene assay; format: functional, cell-based
Structure (SMILES),inhibition [1],IC50 [2] [µM],Activity [3],inhibition [4],Activity [5],Activity [6],Activity [7],Activity [8],Activity [9]
O=C(Nc1ccc(N2C(=O)O/C(=C\c3ccc(O)c(Br)c3)C2=O)cc1)C1CCCCC1,inactive,0.021,inactive,inactive,inactive,inactive,inactive,inactive,inactive
COc1ccc(N2C(=O)C(Cc3ccc(O)c(Br)c3)SC2=S)cc1 (centres undefined),inactive,0.09,inactive,inactive,inactive,inactive,inactive,inactive,inactive
COc1ccc(N2C(=O)O/C(=C\c3ccc(O)c(Br)c3)C2=O)cn1,inactive,0.004,inactive,inactive,inactive,inactive,inactive,inactive,inactive
COc1ccc(N2C(=O)/C(=C/c3ccc(O)c(OC)c3)OC2=S)cc1,inactive,0.27,inactive,inactive,inactive,inactive,inactive,inactive,inactive
O=C1/C(=C/c2ccc(O)c(Br)c2)OC(=S)N1c1ccc2c(c1)OCO2,inactive,0.012,inactive,inactive,inactive,inactive,inactive,inactive,inactive
COc1ccc(N2C(=O)/C(=C/c3ccc(O)c(Cl)c3)OC2=S)cc1,inactive,0.004,inactive,inactive,inactive,inactive,inactive,inactive,inactive
COc1ccc(CN2C(=O)/C(=C/c3ccc(O)c(Br)c3)SC2=S)cc1,inactive,0.09,inactive,inactive,inactive,inactive,inactive,inactive,inactive
C#CCN1C(=O)/C(=C/c2ccc(O)c(Br)c2)SC1=S,inactive,0.3,inactive,inactive,inactive,inactive,inactive,inactive,inactive
COc1ccc(N2C(=O)/C(=C(/C)c3ccc(O)c(Br)c3)SC2=S)cc1,inactive,0.09,inactive,inactive,inactive,inactive,inactive,inactive,inactive
CSc1ccc(N2C(=O)O/C(=C\c3ccc(O)c(Br)c3)C2=O)cc1,inactive,0.09,inactive,inactive,inactive,inactive,inactive,inactive,inactive
COCCN1C(=O)/C(=C/c2ccc(O)c(Br)c2)SC1=S,inactive,0.19,inactive,inactive,inactive,inactive,inactive,inactive,inactive
